This assay concerns mutant Huntington (HTT) protein. In words: HTT Mutant HTRF iPSC assay (mHTT protein lowering). Format: cell-based. To be noted: human iPSC derived from a HTT patient with a poly-Q49 mutation.

pIC50: −log10 of the molar value.

`Cn1cc2cc(-c3cc(F)c4nc(CC5CNC5)cn4c3)cc(F)c2n1` [Compound 19, 5-(2-(azetidin-3-ylmethyl)-8-fluoroimidazo[1,2-a]pyridin-6-yl)-7-fluoro-2-methyl-2H-indazole] gave a pIC50 of 5.05 to 6.00.
The compound `Cn1cc2cc(-c3cc(F)c4nc(CC5CNC5)cn4c3)ccc2n1` [Compound 20, 5-(2-(azetidin-3-ylmethyl)-8-fluoroimidazo[1,2-a]pyridin-6-yl)-2-methyl-2H-indazole] showed a pIC50 of 5.05 to 6.00.
As for `Cc1cn2cc(-c3cc(F)c4nc(CC5CNC5)cn4c3)cc(F)c2n1` [Compound 21, 2-(azetidin-3-ylmethyl)-8,8′-difluoro-2′-methyl-6,6′-biimidazo[1,2-a]pyridine], the figure is 5.05 to 6.00.
As for `CNCCc1cn2cc(-c3ccc4nn(C)cc4c3)cc(F)c2n1` [Compound 22, 2-(8-fluoro-6-(2-methyl-2H-indazol-5-yl)imidazo[1,2-a]pyridin-2-yl)-N-methylethan-1-amine], the figure is 5.05 to 6.00.
On to `Cn1cc2cc(-c3cc(F)c4nc(C5CNC5)cn4c3)cc(F)c2n1` [Compound 23, 5-(2-(azetidin-3-yl)-8-fluoroimidazo[1,2-a]pyridin-6-yl)-7-fluoro-2-methyl-2H-indazole], for which the pIC50 is 5.05 to 6.00.
`CNCCc1cn2cc(-c3cc(F)c4nc(C)cn4c3)cc(F)c2n1` [Compound 24, 2-(8,8′-difluoro-2′-methyl-[6,6′-biimidazo[1,2-a]pyridin]-2-yl)-N-methylethan-1-amine] showed a negative logarithm of the IC50 (pIC50) of 5.05 to 6.00.
As for `CCN1CCC(c2cn3cc(-c4cc(C)c5nn(C)cc5c4)cc(F)c3n2)CC1` [Compound 25, 5-(2-(1-ethylpiperidin-4-yl)-8-fluoroimidazo[1,2-a]pyridin-6-yl)-2,7-dimethyl-2H-indazole], the figure is 6.00 to 7.00; as for `CN1CCC(c2cn3cc(-c4cc(F)c5nn(C)cc5c4)cc(F)c3n2)CC1` [Compound 26, 7-fluoro-5-(8-fluoro-2-(1-methylpiperidin-4-yl)imidazo[1,2-a]pyridin-6-yl)-2-methyl-2H-indazole], 6.00 to 7.00; as for `CCN1CCC(c2cn3cc(-c4cc(C)c5nc(C)cn5c4)cc(F)c3n2)CC1` [Compound 27, 2-(1-ethylpiperidin-4-yl)-8-fluoro-2′,8′-dimethyl-6,6′-biimidazo[1,2-a]pyridine], 6.00 to 7.00.
On to `CN1CCC(c2cn3cc(-c4ccc5nn(C)cc5c4)cc(F)c3n2)CC1` [Compound 28, 5-(8-fluoro-2-(1-methylpiperidin-4-yl)imidazo[1,2-a]pyridin-6-yl)-2-methyl-2H-indazole], for which the pIC50 was 5.05 to 6.00.
On to `Cn1nnc2ccc(-c3cc(F)c4nc(C5CCNCC5)cn4c3)cc21` [Compound 29, 6-(8-fluoro-2-(piperidin-4-yl)imidazo[1,2-a]pyridin-6-yl)-1-methyl-1H-benzo[d][1,2,3]triazole], for which the pIC50 was 6.00 to 7.00.
For the compound `CCc1nc(C)cn2cc(-c3cc(F)c4nc(C5CCNCC5)cn4c3)cc12` [Compound 30, 6-(1-ethyl-3-methylpyrrolo[1,2-a]pyrazin-7-yl)-8-fluoro-2-(piperidin-4-yl)imidazo[1,2-a]pyridine], the pIC50 was more than 7.00.
`Cc1cn2cc(-c3cc(F)c4nc(C5CCNCC5)cn4c3)cc2c(C)n1` [Compound 31, 6-(1,3-dimethylpyrrolo[1,2-a]pyrazin-7-yl)-8-fluoro-2-(piperidin-4-yl)imidazo[1,2-a]pyridine] gave a pIC50 of more than 7.00.
The compound `Cc1cn2cc(-c3cc(F)c4nc(C5CCNCC5)cn4c3)cc(Cl)c2n1` [Compound 32, 8-chloro-8′-fluoro-2-methyl-2′-(piperidin-4-yl)-6,6′-biimidazo[1,2-a]pyridine] showed a pIC50 of 6.00 to 7.00.
In turn, `Fc1cc(-c2ccc3nscc3c2)cn2cc(C3CCNCC3)nc12` [Compound 33, 5-(8-fluoro-2-(piperidin-4-yl)imidazo[1,2-a]pyridin-6-yl)benzo[c]isothiazole] gave a pIC50 of 5.05 to 6.00.
The value for `Fc1cc(-c2ccn3nccc3c2)cn2cc(C3CCNCC3)nc12` [Compound 34, 8-fluoro-2-(piperidin-4-yl)-6-(pyrazolo[1,5-a]pyridin-5-yl)imidazo[1,2-a]pyridine] was 5.05 to 6.00.
Turning to `Cc1csc2cc(-c3cc(F)c4nc(C5CCNCC5)cn4c3)cnc12` [Compound 35, 6-(8-fluoro-2-(piperidin-4-yl)imidazo[1,2-a]pyridin-6-yl)-3-methylthieno[3,2-b]pyridine], the pIC50 is 5.05 to 6.00.
In turn, `Fc1cc(-c2ccc3nn(C(F)F)cc3c2)cn2cc(C3CCNCC3)nc12` [Compound 36, 2-(difluoromethyl)-5-(8-fluoro-2-(piperidin-4-yl)imidazo[1,2-a]pyridin-6-yl)-2H-indazole] had a pIC50 of 5.05 to 6.00.
The compound `Cc1nc2ccc(-c3cc(F)c4nc(C5CCNCC5)cn4c3)cn2n1` [Compound 37, 6-(8-fluoro-2-(piperidin-4-yl)imidazo[1,2-a]pyridin-6-yl)-2-methyl-[1,2,4]triazolo[1,5-a]pyridine] had a negative-log IC50 (pIC50) of 5.05 to 6.00.
As for `Cc1cc(-c2cc(F)c3nc(C4CCNCC4)cn3c2)ccc1C#N` [Compound 38, 4-(8-fluoro-2-(piperidin-4-yl)imidazo[1,2-a]pyridin-6-yl)-2-methylbenzonitrile], the figure is 5.05 to 6.00.
As to `Fc1cc(-c2cc3ccc(Cl)cc3o2)cn2cc(C3CCNCC3)nc12` [Compound 39, 6-(6-chlorobenzofuran-2-yl)-8-fluoro-2-(piperidin-4-yl)imidazo[1,2-a]pyridine], the pIC50 was 5.05 to 6.00.
The compound `CCc1c[nH]c2ncc(-c3cc(F)c4nc(C5CCNCC5)cn4c3)cc12` [Compound 40, 6-(3-ethyl-1H-pyrrolo[2,3-b]pyridin-5-yl)-8-fluoro-2-(piperidin-4-yl)imidazo[1,2-a]pyridine] gave a pIC50 of 5.05 to 6.00.
The compound `CCOc1nccc2oc(-c3cc(F)c4nc(C5CCNCC5)cn4c3)cc12` [Compound 41, 4-ethoxy-2-(8-fluoro-2-(piperidin-4-yl)imidazo[1,2-a]pyridin-6-yl)furo[3,2-c]pyridine] showed a pIC50 of 5.05 to 6.00.
With `Cc1cn2cc(-c3cc(F)c4nc(C5CCNCC5)cn4c3)cc(C#N)c2n1` [Compound 42, 8′-fluoro-2-methyl-2′-(piperidin-4-yl)-[6,6′-biimidazo[1,2-a]pyridine]-8-carbonitrile], the pIC50 is 5.05 to 6.00.
The value for `Fc1cccc2sc(-c3cc(F)c4nc(C5CCNCC5)cn4c3)cc12` [Compound 43, 8-fluoro-6-(4-fluorobenzo[b]thiophen-2-yl)-2-(piperidin-4-yl)imidazo[1,2-a]pyridine] was 5.05 to 6.00.
`Fc1cc(-c2ccc3ncsc3c2)cn2cc(C3CCNCC3)nc12` [Compound 44, 6-(8-fluoro-2-(piperidin-4-yl)imidazo[1,2-a]pyridin-6-yl)benzo[d]thiazole] showed a pIC50 of 5.05 to 6.00.
For the compound `COCCCN1CCC(c2cn3cc(-c4cc(C)c5nc(C)cn5n4)cc(F)c3n2)CC1` [Compound 45, 6-(8-fluoro-2-(1-(3-methoxypropyl)piperidin-4-yl)imidazo[1,2-a]pyridin-6-yl)-2,8-dimethylimidazo[1,2-b]pyridazine], the pIC50 was more than 7.00.
`COCCN1CCC(c2cn3cc(-c4cc(C)c5nc(C)cn5n4)cc(F)c3n2)CC1` [Compound 46, 6-[8-fluoro-2-[1-(2-methoxyethyl)-4-piperidyl]imidazo[1,2-a]pyridin-6-yl]-2,8-dimethyl-imidazo[1,2-b]pyridazine] showed a pIC50 of more than 7.00.
In turn, `Cc1cn2nc(-c3cc(F)c4nc(C5CCN(C(C)C)CC5)cn4c3)cc(C)c2n1` [Compound 47, 6-(8-fluoro-2-(1-isopropylpiperidin-4-yl)imidazo[1,2-a]pyridin-6-yl)-2,8-dimethylimidazo[1,2-b]pyridazine] gave a pIC50 of more than 7.00.
As for `Fc1cc(-c2cccc3nonc23)cn2cc(C3CCNCC3)nc12` [Compound 48, 4-(8-fluoro-2-(piperidin-4-yl)imidazo[1,2-a]pyridin-6-yl)benzo[c][1,2,5]oxadiazole], the pIC50 was 5.05 to 6.00.
The compound `Cc1nc2cc(-c3cc(F)c4nc(C5CCNCC5)cn4c3)ccc2[nH]1` [Compound 50, 5-(8-fluoro-2-(piperidin-4-yl)imidazo[1,2-a]pyridin-6-yl)-2-methyl-1H-benzo[d]imidazole] gave a pIC50 of 5.05 to 6.00.
As for `Fc1cc(-c2ccc3nonc3c2)cn2cc(C3CCNCC3)nc12` [Compound 51, 5-(8-fluoro-2-(piperidin-4-yl)imidazo[1,2-a]pyridin-6-yl)benzo[c][1,2,5]oxadiazole], the figure is 5.05 to 6.00; as for `Fc1cc(-c2cc(F)c3nc(C4CCNCC4)cn3c2)cc2[nH]ncc12` [Compound 52, 4-fluoro-6-(8-fluoro-2-(piperidin-4-yl)imidazo[1,2-a]pyridin-6-yl)-1H-indazole], 5.05 to 6.00.
For the compound `Cc1n[nH]c2ccc(-c3cc(F)c4nc(C5CCNCC5)cn4c3)cc12` [Compound 53, 5-(8-fluoro-2-(piperidin-4-yl)imidazo[1,2-a]pyridin-6-yl)-3-methyl-1H-indazole], the pIC50 is 5.05 to 6.00.
As to `Fc1cc(-c2ccc3nsnc3c2)cn2cc(C3CCNCC3)nc12` [Compound 54, 5-(8-fluoro-2-(piperidin-4-yl)imidazo[1,2-a]pyridin-6-yl)benzo[c][1,2,5]thiadi azole], the pIC50 is 5.05 to 6.00.
The compound `CN1C(=O)Cc2ccc(-c3cc(F)c4nc(C5CCNCC5)cn4c3)cc21` [Compound 55, 6-(8-fluoro-2-(piperidin-4-yl)imidazo[1,2-a]pyridin-6-yl)-1-methylindolin-2-one] gave a pIC50 of 5.05 to 6.00.
The compound `N#Cc1cccc2[nH]c(-c3cc(F)c4nc(C5CCNCC5)cn4c3)cc12` [Compound 56, 2-(8-fluoro-2-(piperidin-4-yl)imidazo[1,2-a]pyridin-6-yl)-1H-indole-4-carbonitrile] gave a pIC50 of 5.05 to 6.00.
`O=C1Cc2cc(-c3cc(F)c4nc(C5CCNCC5)cn4c3)cc(F)c2N1` [Compound 57, 7-fluoro-5-(8-fluoro-2-(piperidin-4-yl)imidazo[1,2-a]pyridin-6-yl)indolin-2-one]: the pIC50 is 5.05 to 6.00.
`O=c1[nH]ncc2ccc(-c3cc(F)c4nc(C5CCNCC5)cn4c3)cc12` [Compound 58, 7-(8-fluoro-2-(piperidin-4-yl)imidazo[1,2-a]pyridin-6-yl)phthalazin-1(2H)-one] showed a pIC50 of 5.05 to 6.00.

Usually pIC50 stands for −log10 of the IC50, conventionally taken in molar units. Higher therefore signals a low IC50.
